{"source": "patent US6962926B2", "about": "“Antagonist of MCP-1 function, and compositions and methods of use thereof” (Telik, Inc., priority 2001, dated 2005)", "test_system": "Experimental Allergic Encephalomyelitis (EAE)", "test": "Experimental Allergic Encephalomyelitis (EAE) model of multiple sclerosis", "format": "in vivo", "details": "mice, MOG35-55-induced EAE, 30 mg/Kg twice daily for 35 days", "experimental": "EAE was induced in two groups, each of 10 mice, by subcutaneous injection into the flank of 150 μg of the encephalitogenic peptide MOG35-55 ([…]; Auspep, Melbourne, Australia) emulsified in complete Freund's adjuvant (Difco, Detroit, U.S.A.), supplemented with 4 mg/mL of Mycobacterium tuberculosis, followed by intravenous injection of 350 ng of pertussis vaccine (List Biological Laboratories, Campbell, U.S.A.), with the pertussis vaccine injection repeated after 48 hours.\nCompound 1 was dissolved in 3% aqueous Tween 80 at 4mg/mL and stored at 4° C. Starting on the day of immunization with MOG35-55, the mice were treated twice daily with 30 mg/Kg of compound 1 or an equal volume of water for the 35 day duration of the experiment.\nThe mice were monitored daily and neurological impairment was quantified on an arbitrary scale: 0, no detectable impairment; 1, flaccid tail; 2, hind limb weakness; 3, hind limb paralysis; 4, hind limb paralysis and ascending paralysis; 5, moribund or dead.\nAt the end of the experiment, the mice were killed and hematoxylin and eosin stained sections of brain and spinal cord were scored blindly by two independent investigators using the following scale: 0, no inflammation; 1, few very small cellular infiltrate in the perivascular areas and meninges; 2, mild cellular infiltrate; 3, moderate cellular infiltrate; 4, severe cellular infiltrate; 5, very large and extensive cellular infiltrate.", "key": {"[1]": {"details": "neurological impairment scale 0-5"}}}
{"smiles": "Cc1nn(C)c2nc(OCCN3CCCC3)c(C(=O)NC(=O)Nc3cccc(OC(C)C)c3)cc12.Cl", "note": "[Compound 1, 1-{1,3-dimethyl-6-[2-(pyrrolidin-1-yl)ethoxy]-1H-pyrazolo[3,4-b]pyridine-5-carbonyl}-3-(3-isopropoxyphenyl)urea hydrochloride]", "values": [{"measurement": "Mean onset", "value": 17.2, "unit": "days"}, {"measurement": "EAE incidence", "setting": "affected/total", "value": "5/10"}, {"measurement": "Mean cumulative score", "setting": "[1]", "value": 7.25}, {"measurement": "Mean maximum score", "setting": "[1]", "value": 1.4}]}
